Experimental data as given in PubChem BioAssay (NCI).
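Grown in 96-well plates, cells were treated for 48 hours with each compound at five concentrations. Insufficient inhibition: endpoint recorded as highest concentration tested. GI50 = concentration required for 50% inhibition of growth. TGI marks complete inhibition of growth.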

Tests used:
Assay in all cases: NCI tumour cell line growth inhibition, 48 h
TK-10 renal = system: TK-10 renal
NCI-H522 lung = system: NCI-H522 lung
PC-3 prostate = system: PC-3 prostate
HCT-116 colon = system: HCT-116 colon
NCI/ADR-RES ovarian = system: NCI/ADR-RES ovarian
EKVX NSCLC = system: EKVX NSCLC
BT-549 breast = system: BT-549 breast
OVCAR-8 ovarian = system: OVCAR-8 ovarian
SR leukemia = system: SR leukemia
SNB-75 CNS = system: SNB-75 CNS
T-47D breast = system: T-47D breast
SF-268 CNS = system: SF-268 CNS
UO-31 renal = system: UO-31 renal
DU-145 prostate = system: DU-145 prostate
HCC-2998 colon = system: HCC-2998 colon
KM12 colon = system: KM12 colon
SF-295 CNS = system: SF-295 CNS
RXF 393 renal = system: RXF 393 renal
NCI-H226 lung = system: NCI-H226 lung
MDA-MB-231 breast = system: MDA-MB-231 breast
SNB-19 CNS = system: SNB-19 CNS
IGROV1 ovarian = system: IGROV1 ovarian
786-0 renal = system: 786-0 renal
CAKI-1 renal = system: CAKI-1 renal
M14 melanoma = system: M14 melanoma
A498 renal = system: A498 renal
OVCAR-4 ovarian = system: OVCAR-4 ovarian
ACHN renal = system: ACHN renal
HS 578T breast = system: HS 578T breast
K-562 leukemia = system: K-562 leukemia
NCI-H460 lung = system: NCI-H460 lung
RPMI-8226 leukemia = system: RPMI-8226 leukemia
COLO 205 colon = system: COLO 205 colon
SK-OV-3 ovarian = system: SK-OV-3 ovarian
SK-MEL-28 melanoma = system: SK-MEL-28 melanoma
MCF7 breast = system: MCF7 breast
NCI-H23 lung = system: NCI-H23 lung
LOX IMVI melanoma = system: LOX IMVI melanoma
SN12C renal = system: SN12C renal
SW-620 colon = system: SW-620 colon
U251 CNS = system: U251 CNS
MOLT-4 leukemia = system: MOLT-4 leukemia
SK-MEL-5 melanoma = system: SK-MEL-5 melanoma
HOP-62 NSCLC = system: HOP-62 NSCLC
HOP-92 NSCLC = system: HOP-92 NSCLC
UACC-62 melanoma = system: UACC-62 melanoma
HT29 colon = system: HT29 colon
HL-60(TB) leukemia = system: HL-60(TB) leukemia
SK-MEL-2 melanoma = system: SK-MEL-2 melanoma
A549 NSCLC = system: A549 NSCLC
UACC-257 melanoma = system: UACC-257 melanoma
SF-539 CNS = system: SF-539 CNS
OVCAR-3 ovarian = system: OVCAR-3 ovarian
CCRF-CEM leukemia = system: CCRF-CEM leukemia
OVCAR-5 ovarian = system: OVCAR-5 ovarian
MDA-MB-435 = system: MDA-MB-435
MALME-3M melanoma = system: MALME-3M melanoma
HCT-15 colon = system: HCT-15 colon

CN1CCN(Cc2ccc(NC(=O)c3cncc(C#Cc4cnc5ccc(OCCCS(C)(=O)=O)nn45)c3)cc2C(F)(F)F)CC1
GI50 (TK-10 renal): 1130 nM
TGI (TK-10 renal): 2940 nM
GI50 (NCI-H522 lung): 460 nM
TGI (NCI-H522 lung): 1280 nM
GI50 (PC-3 prostate): 873 nM
TGI (PC-3 prostate): 4970 nM
GI50 (HCT-116 colon): 67.3 nM
TGI (HCT-116 colon): 594 nM
GI50 (NCI/ADR-RES ovarian): 8490 nM
TGI (NCI/ADR-RES ovarian): 34100 nM
GI50 (EKVX NSCLC): 1120 nM
TGI (EKVX NSCLC): 4280 nM
GI50 (BT-549 breast): 469 nM
TGI (BT-549 breast): 1390 nM
GI50 (OVCAR-8 ovarian): 1000 nM
TGI (OVCAR-8 ovarian): 4330 nM
GI50 (SR leukemia): 207 nM
TGI (SR leukemia): 1470 nM
GI50 (SNB-75 CNS): 338 nM
TGI (SNB-75 CNS): 1130 nM
GI50 (T-47D breast): 783 nM
TGI (T-47D breast): 12200 nM
GI50 (SF-268 CNS): 690 nM
TGI (SF-268 CNS): 1720 nM
GI50 (UO-31 renal): 1330 nM
TGI (UO-31 renal): 3770 nM
GI50 (DU-145 prostate): 691 nM
TGI (DU-145 prostate): 3790 nM
GI50 (HCC-2998 colon): 687 nM
TGI (HCC-2998 colon): 2750 nM
GI50 (KM12 colon): 5 nM
TGI (KM12 colon): 1400 nM
GI50 (SF-295 CNS): 1090 nM
TGI (SF-295 CNS): 4770 nM
GI50 (RXF 393 renal): 803 nM
TGI (RXF 393 renal): 1630 nM
GI50 (NCI-H226 lung): 131 nM
TGI (NCI-H226 lung): 1030 nM
GI50 (MDA-MB-231 breast): 166 nM
TGI (MDA-MB-231 breast): 1050 nM
GI50 (SNB-19 CNS): 1290 nM
TGI (SNB-19 CNS): 4460 nM
GI50 (IGROV1 ovarian): 258 nM
TGI (IGROV1 ovarian): 2450 nM
GI50 (786-0 renal): 359 nM
TGI (786-0 renal): 1170 nM
GI50 (CAKI-1 renal): 459 nM
TGI (CAKI-1 renal): 2680 nM
GI50 (M14 melanoma): 171 nM
TGI (M14 melanoma): 701 nM
GI50 (A498 renal): 863 nM
TGI (A498 renal): 1620 nM
GI50 (OVCAR-4 ovarian): 547 nM
TGI (OVCAR-4 ovarian): 1930 nM
GI50 (ACHN renal): 1390 nM
TGI (ACHN renal): 4460 nM
GI50 (HS 578T breast): 318 nM
TGI (HS 578T breast): 1660 nM
GI50 (K-562 leukemia): 12.3 nM
TGI (K-562 leukemia): 2170 nM
GI50 (NCI-H460 lung): 311 nM
TGI (NCI-H460 lung): 953 nM
GI50 (RPMI-8226 leukemia): 1190 nM
TGI (RPMI-8226 leukemia): 3410 nM
GI50 (COLO 205 colon): 377 nM
TGI (COLO 205 colon): 1150 nM
GI50 (SK-OV-3 ovarian): 868 nM
TGI (SK-OV-3 ovarian): 3470 nM
GI50 (SK-MEL-28 melanoma): 796 nM
TGI (SK-MEL-28 melanoma): 2550 nM
GI50 (MCF7 breast): 213 nM
TGI (MCF7 breast): 2830 nM
GI50 (NCI-H23 lung): 420 nM
TGI (NCI-H23 lung): 1560 nM
GI50 (LOX IMVI melanoma): 305 nM
TGI (LOX IMVI melanoma): 1020 nM
GI50 (SN12C renal): 415 nM
TGI (SN12C renal): 2200 nM
GI50 (SW-620 colon): 193 nM
TGI (SW-620 colon): 1050 nM
GI50 (U251 CNS): 554 nM
TGI (U251 CNS): 2610 nM
GI50 (MOLT-4 leukemia): 272 nM
TGI (MOLT-4 leukemia): 3710 nM
GI50 (SK-MEL-5 melanoma): 775 nM
TGI (SK-MEL-5 melanoma): 1740 nM
GI50 (HOP-62 NSCLC): 833 nM
TGI (HOP-62 NSCLC): 2760 nM
GI50 (HOP-92 NSCLC): 101 nM
TGI (HOP-92 NSCLC): 393 nM
GI50 (UACC-62 melanoma): 571 nM
TGI (UACC-62 melanoma): 1520 nM
GI50 (HT29 colon): 475 nM
TGI (HT29 colon): 1890 nM
GI50 (HL-60(TB) leukemia): 229 nM
TGI (HL-60(TB) leukemia): 802 nM
GI50 (SK-MEL-2 melanoma): 216 nM
TGI (SK-MEL-2 melanoma): 783 nM
GI50 (A549 NSCLC): 1090 nM
TGI (A549 NSCLC): 5930 nM
GI50 (UACC-257 melanoma): 1030 nM
TGI (UACC-257 melanoma): 3470 nM
GI50 (SF-539 CNS): 164 nM
TGI (SF-539 CNS): 906 nM
GI50 (OVCAR-3 ovarian): 795 nM
TGI (OVCAR-3 ovarian): 3040 nM
GI50 (CCRF-CEM leukemia): 213 nM
TGI (CCRF-CEM leukemia): 22400 nM
GI50 (OVCAR-5 ovarian): 892 nM
TGI (OVCAR-5 ovarian): 4570 nM
GI50 (MDA-MB-435): 221 nM
TGI (MDA-MB-435): 1000 nM
GI50 (MALME-3M melanoma): 128 nM
TGI (MALME-3M melanoma): 576 nM
GI50 (HCT-15 colon): 1340 nM
TGI (HCT-15 colon): 4260 nM
